Measured values published in PubChem BioAssay (NCI).
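Five concentrations, 48 hours, 96-well plates. GI50 = concentration required for 50% inhibition of growth. TGI: concentration producing complete growth inhibition.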

Key:
Assay in all cases: NCI-60 cell line screen, 48 h
NCI-H23 lung = test system: NCI-H23 lung
HOP-92 NSCLC = test system: HOP-92 NSCLC
MDA-MB-231 breast = test system: MDA-MB-231 breast
CCRF-CEM leukemia = test system: CCRF-CEM leukemia
HCC-2998 colon = test system: HCC-2998 colon
A549 NSCLC = test system: A549 NSCLC
SNB-75 CNS = test system: SNB-75 CNS
SR leukemia = test system: SR leukemia
CAKI-1 renal = test system: CAKI-1 renal
OVCAR-5 ovarian = test system: OVCAR-5 ovarian
A498 renal = test system: A498 renal
UACC-257 melanoma = test system: UACC-257 melanoma
SK-MEL-5 melanoma = test system: SK-MEL-5 melanoma
MCF7 breast = test system: MCF7 breast
M14 melanoma = test system: M14 melanoma
EKVX NSCLC = test system: EKVX NSCLC
786-0 renal = test system: 786-0 renal
RXF 393 renal = test system: RXF 393 renal
LOX IMVI melanoma = test system: LOX IMVI melanoma
DU-145 prostate = test system: DU-145 prostate
U251 CNS = test system: U251 CNS
HL-60(TB) leukemia = test system: HL-60(TB) leukemia
NCI-H226 lung = test system: NCI-H226 lung
HS 578T breast = test system: HS 578T breast
NCI-H460 lung = test system: NCI-H460 lung
K-562 leukemia = test system: K-562 leukemia
T-47D breast = test system: T-47D breast
PC-3 prostate = test system: PC-3 prostate
OVCAR-4 ovarian = test system: OVCAR-4 ovarian
HT29 colon = test system: HT29 colon
SK-OV-3 ovarian = test system: SK-OV-3 ovarian
SW-620 colon = test system: SW-620 colon
ACHN renal = test system: ACHN renal
MOLT-4 leukemia = test system: MOLT-4 leukemia
HOP-62 NSCLC = test system: HOP-62 NSCLC
OVCAR-8 ovarian = test system: OVCAR-8 ovarian
SK-MEL-2 melanoma = test system: SK-MEL-2 melanoma
SN12C renal = test system: SN12C renal
MALME-3M melanoma = test system: MALME-3M melanoma
UO-31 renal = test system: UO-31 renal
COLO 205 colon = test system: COLO 205 colon
KM12 colon = test system: KM12 colon
SF-268 CNS = test system: SF-268 CNS
UACC-62 melanoma = test system: UACC-62 melanoma
HCT-15 colon = test system: HCT-15 colon
MDA-MB-435 = test system: MDA-MB-435
SNB-19 CNS = test system: SNB-19 CNS
OVCAR-3 ovarian = test system: OVCAR-3 ovarian
TK-10 renal = test system: TK-10 renal
RPMI-8226 leukemia = test system: RPMI-8226 leukemia
BT-549 breast = test system: BT-549 breast
NCI/ADR-RES ovarian = test system: NCI/ADR-RES ovarian
SK-MEL-28 melanoma = test system: SK-MEL-28 melanoma
SF-295 CNS = test system: SF-295 CNS
IGROV1 ovarian = test system: IGROV1 ovarian
NCI-H522 lung = test system: NCI-H522 lung
HCT-116 colon = test system: HCT-116 colon
SF-539 CNS = test system: SF-539 CNS

## CO[C@H]1C[C@@H]2CC[C@@H](C)[C@@](O)(O2)C(=O)C(=O)N2CCCC[C@H]2C(=O)O[C@H]([C@H](C)C[C@@H]2CC[C@@H](OC(=O)C(C)(CO)CO)[C@H](OC)C2)CC(=O)[C@H](C)/C=C(\C)[C@@H](O)[C@@H](OC)C(=O)[C@H](C)C[C@H](C)\C=C/C=C/C=C/1C
NCI-H23 lung
  GI50: 0.0866 µM
  TGI: > 10 µM
HOP-92 NSCLC
  GI50: 0.00141 µM
  TGI: > 8.98 µM
MDA-MB-231 breast
  GI50: > 4.32 µM
  TGI: > 10 µM
CCRF-CEM leukemia
  GI50: 0.0368 µM
  TGI: > 10 µM
HCC-2998 colon
  TGI: > 10 µM
A549 NSCLC
  GI50: 0.067 µM
  TGI: > 10 µM
SNB-75 CNS
  GI50: < 0.001 µM
  TGI: > 10 µM
SR leukemia
  GI50: 0.00251 µM
  TGI: > 10 µM
CAKI-1 renal
  GI50: 0.0352 µM
  TGI: > 10 µM
OVCAR-5 ovarian
  GI50: > 6.89 µM
  TGI: > 10 µM
A498 renal
  GI50: 0.00187 µM
UACC-257 melanoma
  GI50: > 10 µM
  TGI: > 10 µM
SK-MEL-5 melanoma
  GI50: 1.35 µM
  TGI: > 10 µM
MCF7 breast
  GI50: 0.00422 µM
  TGI: > 10 µM
M14 melanoma
  GI50: > 6.06 µM
  TGI: > 10 µM
EKVX NSCLC
  GI50: 0.00167 µM
  TGI: > 10 µM
786-0 renal
  GI50: 0.0149 µM
  TGI: > 10 µM
RXF 393 renal
  GI50: < 0.001 µM
  TGI: > 10 µM
LOX IMVI melanoma
  GI50: 0.00435 µM
  TGI: > 10 µM
DU-145 prostate
  GI50: 0.045 µM
  TGI: > 10 µM
U251 CNS
  TGI: > 10 µM
HL-60(TB) leukemia
  GI50: > 10 µM
  TGI: > 10 µM
NCI-H226 lung
  GI50: 0.0273 µM
  TGI: > 10 µM
HS 578T breast
  GI50: 0.00133 µM
  TGI: > 10 µM
NCI-H460 lung
  GI50: 0.00131 µM
  TGI: > 10 µM
K-562 leukemia
  GI50: 5.96 µM
  TGI: > 10 µM
T-47D breast
  TGI: > 10 µM
PC-3 prostate
  GI50: 0.00144 µM
  TGI: > 10 µM
OVCAR-4 ovarian
  GI50: < 0.001 µM
  TGI: > 10 µM
HT29 colon
  GI50: 1.47 µM
  TGI: > 10 µM
SK-OV-3 ovarian
  GI50: 0.00139 µM
  TGI: > 10 µM
SW-620 colon
  GI50: > 10 µM
  TGI: > 10 µM
ACHN renal
  GI50: > 9.24 µM
  TGI: > 10 µM
MOLT-4 leukemia
  GI50: 0.22 µM
  TGI: > 10 µM
HOP-62 NSCLC
  GI50: 0.0147 µM
  TGI: > 10 µM
OVCAR-8 ovarian
  TGI: > 10 µM
SK-MEL-2 melanoma
  GI50: 1.68 µM
  TGI: > 10 µM
SN12C renal
  GI50: > 10 µM
  TGI: > 10 µM
MALME-3M melanoma
  GI50: 0.00766 µM
  TGI: > 10 µM
UO-31 renal
  GI50: 0.00102 µM
  TGI: > 10 µM
COLO 205 colon
  GI50: > 5.94 µM
  TGI: > 10 µM
KM12 colon
  GI50: > 10 µM
  TGI: > 10 µM
SF-268 CNS
  TGI: > 10 µM
UACC-62 melanoma
  GI50: 0.0087 µM
  TGI: > 10 µM
HCT-15 colon
  GI50: 0.112 µM
  TGI: > 10 µM
MDA-MB-435
  GI50: 2.36 µM
  TGI: > 10 µM
SNB-19 CNS
  TGI: > 10 µM
OVCAR-3 ovarian
  GI50: 0.685 µM
  TGI: > 10 µM
TK-10 renal
  TGI: > 10 µM
RPMI-8226 leukemia
  GI50: 0.00102 µM
  TGI: > 10 µM
BT-549 breast
  GI50: 0.00363 µM
  TGI: > 10 µM
NCI/ADR-RES ovarian
  GI50: > 4.91 µM
  TGI: > 10 µM
SK-MEL-28 melanoma
  GI50: 0.0219 µM
  TGI: > 10 µM
SF-295 CNS
  GI50: < 0.001 µM
  TGI: > 10 µM
IGROV1 ovarian
  GI50: < 0.001 µM
  TGI: > 10 µM
NCI-H522 lung
  GI50: 0.444 µM
  TGI: > 10 µM
HCT-116 colon
  GI50: > 10 µM
  TGI: > 10 µM
SF-539 CNS
  GI50: 0.00576 µM
  TGI: > 10 µM

## Oc1ccc(Cl)cc1C(c1cc(Cl)ccc1O)C(Cl)(Cl)Cl
NCI-H23 lung
  GI50: 1.73 µM
  TGI: 3.96 µM
HOP-92 NSCLC
  GI50: 2.28 µM
  TGI: 5.44 µM
MDA-MB-231 breast
  GI50: 1.71 µM
  TGI: 3.86 µM
CCRF-CEM leukemia
  GI50: 3.2 µM
  TGI: 8.02 µM
HCC-2998 colon
  GI50: 1.69 µM
  TGI: 3.28 µM
A549 NSCLC
  GI50: 2.68 µM
  TGI: 8.25 µM
SNB-75 CNS
  GI50: 2.17 µM
  TGI: 9.57 µM
SR leukemia
  GI50: 1.5 µM
  TGI: 5.34 µM
CAKI-1 renal
  GI50: 1.97 µM
  TGI: 6.06 µM
OVCAR-5 ovarian
  GI50: 1.66 µM
  TGI: 3.68 µM
A498 renal
  GI50: 1.67 µM
  TGI: 3.53 µM
UACC-257 melanoma
  GI50: 2.68 µM
  TGI: 10.3 µM
SK-MEL-5 melanoma
  GI50: 1.58 µM
  TGI: 3.05 µM
MCF7 breast
  GI50: 2.42 µM
  TGI: 6.65 µM
M14 melanoma
  GI50: 1.78 µM
  TGI: 3.62 µM
EKVX NSCLC
  GI50: 1.84 µM
  TGI: 5.8 µM
786-0 renal
  GI50: 2 µM
  TGI: 3.99 µM
RXF 393 renal
  GI50: 1.95 µM
  TGI: 4.16 µM
LOX IMVI melanoma
  GI50: 1.66 µM
  TGI: 3.22 µM
DU-145 prostate
  GI50: 1.77 µM
  TGI: 3.42 µM
U251 CNS
  GI50: 1.71 µM
  TGI: 3.45 µM
HL-60(TB) leukemia
  GI50: 2.45 µM
  TGI: 5.13 µM
NCI-H226 lung
  GI50: 1.94 µM
  TGI: 4.81 µM
HS 578T breast
  GI50: 1.81 µM
  TGI: 4.45 µM
NCI-H460 lung
  GI50: 2.13 µM
  TGI: 4.58 µM
K-562 leukemia
  GI50: 2.28 µM
  TGI: 5.59 µM
T-47D breast
  GI50: 3.32 µM
  TGI: 12.4 µM
PC-3 prostate
  GI50: 1.79 µM
  TGI: 4.76 µM
OVCAR-4 ovarian
  GI50: 2.71 µM
  TGI: 10.7 µM
HT29 colon
  GI50: 2.05 µM
  TGI: 4 µM
SK-OV-3 ovarian
  GI50: 2.94 µM
  TGI: 9.76 µM
SW-620 colon
  GI50: 1.73 µM
  TGI: 3.3 µM
ACHN renal
  GI50: 1.76 µM
  TGI: 4.11 µM
MOLT-4 leukemia
  GI50: 1.54 µM
  TGI: 5.06 µM
HOP-62 NSCLC
  GI50: 1.7 µM
  TGI: 3.64 µM
OVCAR-8 ovarian
  GI50: 2.89 µM
  TGI: 9.59 µM
SK-MEL-2 melanoma
  GI50: 2.12 µM
  TGI: 5.36 µM
SN12C renal
  GI50: 1.67 µM
  TGI: 3.28 µM
MALME-3M melanoma
  GI50: 1.5 µM
  TGI: 3.91 µM
UO-31 renal
  GI50: 1.5 µM
  TGI: 4.78 µM
COLO 205 colon
  GI50: 1.9 µM
  TGI: 3.82 µM
KM12 colon
  GI50: 1.73 µM
  TGI: 3.34 µM
SF-268 CNS
  GI50: 1.77 µM
  TGI: 3.41 µM
UACC-62 melanoma
  GI50: 1.59 µM
  TGI: 3.82 µM
HCT-15 colon
  GI50: 1.94 µM
  TGI: 5.07 µM
MDA-MB-435
  GI50: 1.95 µM
  TGI: 4.21 µM
SNB-19 CNS
  GI50: 3.24 µM
  TGI: 10.8 µM
OVCAR-3 ovarian
  GI50: 1.92 µM
  TGI: 4.23 µM
TK-10 renal
  GI50: 2.27 µM
  TGI: 5.01 µM
RPMI-8226 leukemia
  GI50: 2.72 µM
  TGI: 8.4 µM
BT-549 breast
  GI50: 1.82 µM
  TGI: 4.71 µM
NCI/ADR-RES ovarian
  GI50: 1.99 µM
  TGI: 4.67 µM
SK-MEL-28 melanoma
  GI50: 1.8 µM
  TGI: 4.02 µM
SF-295 CNS
  GI50: 1.97 µM
  TGI: 4.76 µM
IGROV1 ovarian
  GI50: 1.63 µM
  TGI: 5.67 µM
NCI-H522 lung
  GI50: 1.87 µM
  TGI: 5.44 µM
HCT-116 colon
  GI50: 1.56 µM
  TGI: 2.97 µM
SF-539 CNS
  GI50: 1.69 µM
  TGI: 3.67 µM
